The values that follow come from patent US20090099238A1, “USE OF A PPAR-ALPHA AGONIST TO TREAT PATIENTS SUFFERING FROM WEIGHT GAIN ASSOCIATED WITH A PPAR-GAMMA AGONIST TREATMENT” (priority 2003, published 2009).

Assay [1] is described as follows: Glycemia in obese Zucker rats under fenofibrate, rosiglitazone or co-administration (Example 1). Format: in vivo. The method, then: (§1) Male homozygous Zucker rats of 9 to 11 weeks of age and their lean controls were received from Iffa-Credo (France). They were put into individual cages in a temperature-, humidity- and light-controlled room (21-23° C., 12-12 h light-dark cycle). […] After acclimatization, they were randomized into groups of 10, based on body weight.
(§2) The experimental groups were: Group 1=lean rats, untreated; Group 2=obese rats, treated with the vehicle p.o., twice daily (at 8 a.m. and 8 p.m.); Group 3=obese rats, treated with Fenofibrate, 100 mg/kg, p.o., twice daily (at 8 a.m. and 8 p.m.); Group 4=obese rats, treated with Rosiglitazone. 0.3 mg/kg, p.o., twice daily (at 8 a.m. and 8 p.m.); Group 5=obese rats, treated with Rosiglitazone, 3.0 mg/kg., p.o., twice daily (at 8 a.m. and 8 p.m.); Group 6=obese rats, treated with Fenofibrate, 100 mg/kg and Rosiglitazone, 0.3 mg/kg, p.o., twice daily (at 8 a.m. and 8 p.m.); Group 7=obese rats, treated with Fenofibrate, 100 mg/kg and Rosiglitazone, 3.0 mg/kg, p.o., twice daily (at 8 a.m. and 8 p.m.).
(§3) The following parameters were monitored: glycemia (mg/dl) and body weight gain (g).

Assay [2] can be described thus: Body weight (gain) in obese Zucker rats under fenofibrate, rosiglitazone or co-administration (Example 1). It is filed as in vivo. The procedure: as §1, §2, §3
The conditions of assay [3]: fatty Zucker rats; cited from earlier work.
The mark [4] stands for this setting: Group 3: Fenofibrate 100 mg/kg p.o. twice daily, after 41 days of treatment.
The mark [5] stands for this setting: Group 3: Fenofibrate 100 mg/kg p.o. twice daily, after 69 days of treatment.
The mark [6] stands for this setting: Group 4: Rosiglitazone 0.3 mg/kg p.o. twice daily, after 41 days of treatment.
Where [7] appears, read: Group 4: Rosiglitazone 0.3 mg/kg p.o. twice daily, after 69 days of treatment.
Setting [8] is: Group 5: Rosiglitazone 3.0 mg/kg p.o. twice daily, after 41 days of treatment.
Where [9] appears, read: Group 5: Rosiglitazone 3.0 mg/kg p.o. twice daily, after 69 days of treatment.

Consider `CC(C)OC(=O)C(C)(C)Oc1ccc(C(=O)c2ccc(Cl)cc2)cc1` [Fenofibrate, fenofibrate], for which the Glycemia in assay [1] (setting [4]) is 222.2 ± 53.1 mg/dL; in assay [1] (setting [5]) it was 372.5 ± 78.5 mg/dL. Moreover, the “Body Weight” value was determined as 357.0 ± 7.9 g in assay [2] (setting [4]) and 380.6 ± 13.7 g in assay [2] (setting [5]).

Turning to `COc1ccc(CC2SC(=O)NC2=O)cc1C(=O)NCc1ccc(C(F)(F)F)cc1` (stereo not drawn) [KRP 297], in assay [3], the “body weight gain (result in words)” value was “no change in body weight gain”; the “serum insulin (result in words)” value was “affected serum triglycerides and insulin”; the “serum triglycerides (result in words)” value is “affected serum triglycerides and insulin”.

Regarding `CN(CCOc1ccc(CC2SC(=O)NC2=O)cc1)c1ccccn1` (stereo not drawn) [Rosiglitazone, rosiglitazone], the Glycemia in assay [1] (setting [6]) was found to be 274.6 ± 56.4 mg/dL; in assay [1] (setting [7]) it was 446.0 ± 52.4 mg/dL; in assay [1] (setting [8]), 119.6 ± 5.9 mg/dL; in assay [1] (setting [9]) it was 151.4 ± 6.5 mg/dL. Moreover, the “Body Weight” value in assay [2] (setting [6]) is reported as 538.5 ± 15.8 g; in assay [2] (setting [7]), 615.2 ± 25.9 g; in assay [2] (setting [8]), 601.4 ± 9.3 g; in assay [2] (setting [9]) it was 721.0 ± 12.3 g.
